Patent US4151268A, “Barbituric acid antigens and antibodies specific therefor” (Hoffmann-La Roche Inc., priority 1977, dated 1979)

Experiments:
[1] = tested on: barbituric acid specific antibody (antisera obtained in Example 2); assay: Comparison runs: recognition of other barbituric acid derivatives and related compounds by the antibody; conditions: at similar concentrations
[2] = tested on: barbituric acid specific antibody (antisera obtained in Example 2); assay: Radioimmunoassay: competitive inhibition of binding of [C14] pentobarbital to antiserum (ammonium sulfate precipitation); conditions: 4° C., overnight

CCC1(CC)C(=O)NC(=O)NC1=O [barbital]
recognition / binding by the antibody [1]: capable of recognizing

CN1C(=O)NC(=O)C(C)(C2=CCCCC2)C1=O (centres unmarked) [hexobarbital]
recognition / binding by the antibody [1]: failed to bind

CCCC(C)C1(CC)C(=O)NC(=O)NC1=O (centres unmarked) [pentobarbital]
recognition / binding by the antibody [1]: capable of recognizing
Percent inhibition of binding of pentobarbital-C^14 ([2]; 1 nanogram non-radioactive pentobarbital added): 10%
Percent inhibition of binding of pentobarbital-C^14 ([2]; 5 nanograms non-radioactive pentobarbital added, sample volume 10 μl): 20%
Percent inhibition of binding of pentobarbital-C^14 ([2]; 10 nanograms non-radioactive pentobarbital added): 28%
Percent inhibition of binding of pentobarbital-C^14 ([2]; 20 nanograms non-radioactive pentobarbital added): 43%
Percent inhibition of binding of pentobarbital-C^14 ([2]; 30 nanograms non-radioactive pentobarbital added): 52%
Percent inhibition of binding of pentobarbital-C^14 ([2]; 40 nanograms non-radioactive pentobarbital added): 63%

CCC1(c2ccccc2)C(=O)NC(=O)NC1=O [phenobarbital]
recognition / binding by the antibody [1]: capable of recognizing

CCCC(C)C1(CC)C(=O)NC(=S)NC1=O (centres unmarked) [thiopental]
recognition / binding by the antibody [1]: failed to bind
